According to patent US11654199B2 (BOLT BIOTHERAPEUTICS, INC., priority 2019, dated 2023):
pEC50: −log10 of the molar value.

Assays:
human TLR8 = molecular target: T1, human TLR8 (Homo sapiens, UniProt Q9NR97); assay: HEK293 NFKB reporter assay, human TLR8; format: cell-based; details: HEK293 NFKB reporter cells expressing human TLR8; read-out: HEK293 hTLR8 EC50
T1 construct: host or cells: HEK293 reporter cells
T1 sequence (Q9NR97 27-1041): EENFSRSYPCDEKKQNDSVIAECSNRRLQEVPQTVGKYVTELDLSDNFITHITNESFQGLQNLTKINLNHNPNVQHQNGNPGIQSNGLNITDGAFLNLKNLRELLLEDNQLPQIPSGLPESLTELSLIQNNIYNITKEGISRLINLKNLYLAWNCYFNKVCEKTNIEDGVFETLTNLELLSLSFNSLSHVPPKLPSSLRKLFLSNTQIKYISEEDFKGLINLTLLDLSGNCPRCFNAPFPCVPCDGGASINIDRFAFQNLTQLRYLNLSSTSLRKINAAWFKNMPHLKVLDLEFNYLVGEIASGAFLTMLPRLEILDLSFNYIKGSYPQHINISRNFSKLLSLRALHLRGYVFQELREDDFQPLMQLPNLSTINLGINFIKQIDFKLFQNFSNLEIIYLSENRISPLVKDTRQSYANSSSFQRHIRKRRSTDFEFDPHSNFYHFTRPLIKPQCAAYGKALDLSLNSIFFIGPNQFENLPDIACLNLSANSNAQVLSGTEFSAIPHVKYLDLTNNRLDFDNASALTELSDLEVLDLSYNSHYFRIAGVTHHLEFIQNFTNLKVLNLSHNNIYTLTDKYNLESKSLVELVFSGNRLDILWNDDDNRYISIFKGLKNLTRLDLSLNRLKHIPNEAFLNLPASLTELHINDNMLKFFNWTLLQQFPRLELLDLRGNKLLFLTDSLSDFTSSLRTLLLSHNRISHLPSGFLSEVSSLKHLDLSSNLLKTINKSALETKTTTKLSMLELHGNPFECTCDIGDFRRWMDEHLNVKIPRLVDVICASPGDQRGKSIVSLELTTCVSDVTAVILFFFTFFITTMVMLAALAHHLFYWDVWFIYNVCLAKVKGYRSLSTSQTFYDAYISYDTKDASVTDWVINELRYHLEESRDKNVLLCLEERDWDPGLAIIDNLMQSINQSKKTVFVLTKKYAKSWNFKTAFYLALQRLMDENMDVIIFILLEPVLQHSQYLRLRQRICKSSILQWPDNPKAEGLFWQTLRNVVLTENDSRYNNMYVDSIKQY
Description: (§1) Each compound was synthesized, purified, and characterized by mass spectrometry and shown to have the mass indicated. Additional experimental procedures are found in the Examples. Activity against HEK293 NFKB reporter cells expressing human TLR7 or human TLR8 was measured according to Example 202.
(§2) HEK293 reporter cells expressing human TLR7 or human TLR8 were purchased from Invivogen and vendor protocols were followed for cellular propagation and experimentation. Briefly, cells were grown to 80-85% confluence at 5% CO2 in DMEM supplemented with 10% FBS, Zeocin, and Blasticidin. Cells were then seeded in 96-well flat plates at 4×10^4 cells/well with substrate containing HEK detection medium and immunostimulatory molecules. Activity was measured using a plate reader at 620-655 nm wavelength.

human TLR7 = molecular target: T2, human TLR7 (Homo sapiens, UniProt Q9NYK1); assay: HEK293 NFKB reporter assay, human TLR7; format: cell-based; details: HEK293 NFKB reporter cells expressing human TLR7; read-out: HEK293 hTLR7 EC50
T2 construct: host or cells: HEK293 reporter cells
T2 sequence (Q9NYK1 27-1049): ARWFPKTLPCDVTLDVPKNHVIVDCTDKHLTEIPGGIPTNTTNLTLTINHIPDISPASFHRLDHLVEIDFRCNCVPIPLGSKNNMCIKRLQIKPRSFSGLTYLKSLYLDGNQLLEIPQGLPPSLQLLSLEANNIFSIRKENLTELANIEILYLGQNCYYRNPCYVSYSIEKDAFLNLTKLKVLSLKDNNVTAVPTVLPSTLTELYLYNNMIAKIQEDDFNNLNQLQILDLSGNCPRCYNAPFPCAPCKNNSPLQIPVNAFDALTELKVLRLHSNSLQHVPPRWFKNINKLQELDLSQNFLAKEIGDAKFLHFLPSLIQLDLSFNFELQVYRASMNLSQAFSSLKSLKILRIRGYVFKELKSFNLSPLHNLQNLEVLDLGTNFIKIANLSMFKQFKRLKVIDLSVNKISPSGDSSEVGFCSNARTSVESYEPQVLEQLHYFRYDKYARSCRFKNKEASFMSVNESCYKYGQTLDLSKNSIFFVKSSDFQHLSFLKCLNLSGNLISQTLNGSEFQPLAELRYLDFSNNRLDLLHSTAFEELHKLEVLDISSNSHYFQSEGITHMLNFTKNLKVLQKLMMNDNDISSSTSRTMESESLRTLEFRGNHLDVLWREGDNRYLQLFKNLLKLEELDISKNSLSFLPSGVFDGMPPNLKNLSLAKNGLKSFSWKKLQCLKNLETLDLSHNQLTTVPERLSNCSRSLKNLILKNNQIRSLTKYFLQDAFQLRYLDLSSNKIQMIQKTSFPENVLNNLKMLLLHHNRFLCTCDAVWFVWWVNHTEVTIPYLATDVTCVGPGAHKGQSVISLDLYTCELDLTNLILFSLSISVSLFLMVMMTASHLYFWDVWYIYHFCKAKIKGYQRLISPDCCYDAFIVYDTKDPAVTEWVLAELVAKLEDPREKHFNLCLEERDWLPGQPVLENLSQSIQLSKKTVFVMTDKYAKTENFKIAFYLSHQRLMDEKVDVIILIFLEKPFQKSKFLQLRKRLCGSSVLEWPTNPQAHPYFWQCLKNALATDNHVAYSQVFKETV
Description: as §1, §2

| pEC50 (human TLR8) | pEC50 (human TLR7) | Compound |
| --- | --- | --- |
| 5.35 | – | CCCN(C[C@H]1CC[C@@H](CN)CC1)C(=O)C1=Cc2sccc2N=C(N)C1 [TAZ-118] |
| – | 5.54 | CCCN(C[C@H]1CC[C@@H](CNC(=O)OC(C)(C)C)CC1)C(=O)C1=Cc2sccc2N=C(N)C1 [TAZ-119] |
| – | 5.33 | CCCN(C(=O)C1=Cc2sc(CCCCCNC(=O)OC(C)(C)C)cc2N=C(N)C1)C1CC1 [TAZ-123] |
| – | 5.57 | CCCN(CC1CC1)C(=O)C1=Cc2sc(CCCCCNC(=O)OC(C)(C)C)cc2N=C(N)C1 [TAZ-125] |
| – | 5.38 | CCCN(CCCNC(=O)CC(C)(C)C)C(=O)C1=Cc2sc(CN3CCNCC3)cc2N=C(N)C1 [TAZ-139] |
| – | 6.08 | CCCN(CCCNC(=O)C(C)(C)C)C(=O)C1=Cc2sc(CCCCCN)cc2N=C(N)C1 [TAZ-142] |
| – | 5.72 | CCCN(Cc1ccc(CN(C)C)cc1C(F)(F)F)C(=O)C1=Cc2sc(CCCCCNC(=O)OC(C)(C)C)cc2N=C(N)C1 [TAZ-143] |
| – | 5.50 | CCCN(CCCNC(=O)OC1CCC1)C(=O)C1=Cc2sc(CCC3CCN(C(=O)OC(C)(C)C)CC3)cc2N=C(N)C1 [TAZ-167] |
| 5.41 | – | CCCN(CCC)C(=O)C1=Cc2scc(C)c2N=C(N)C1 [TAZ-168] |
| – | 5.50 | CCCN(CCCNC(=O)OC1CCC1)C(=O)C1=Cc2sc(CN3CCNCC3)cc2N=C(N)C1 [TAZ-169] |
| – | 5.11 | CCCN(OCC)C(=O)C1=Cc2sc(C#CC3CCN(C(=O)OC(C)(C)C)CC3)cc2N=C(N)C1 [TAZ-173] |
| 5.59 | – | CCCN(OCC)C(=O)C1=Cc2sc(CC3CCN(C(=O)OC(C)(C)C)CC3)cc2N=C(N)C1 [TAZ-179] |
| – | 5.44 | CCCN(CCCNC(=O)OC1CCC1)C(=O)C1=Cc2sc(CN3CCN(c4ccc(C(=O)OC)cc4)CC3)cc2N=C(N)C1 [TAZ-180] |
| – | 5.69 | CCCN(CCCNC(=O)OC1CCC1)C(=O)C1=Cc2sc(CC3CNC3)cc2N=C(N)C1 [TAZ-181] |
| 6.02 | – | CCCN(OCC)C(=O)C1=Cc2sc(C#CC3CN(C(=O)OC(C)(C)C)C3)cc2N=C(N)C1 [TAZ-187] |
| 5.11 | – | CCCN(OCC)C(=O)C1=Cc2sc(C#CC3(O)CN(C(=O)OC(C)(C)C)C3)cc2N=C(N)C1 [TAZ-188] |
| 5.53 | – | CCCN(OCC)C(=O)C1=Cc2sc(CN3Cc4ccc(NC(=O)CCN)cc4C3)cc2N=C(N)C1 [TAZ-201] |
| 5.36 | – | CCCN(OCC)C(=O)C1=Cc2sc(CN3CC(CN)C3)cc2N=C(N)C1 [TAZ-211] |
| 5.42 | – | CCCN(OCC)C(=O)C1=Cc2sc(CN3C[C@@H]4CN(C(=O)OC(C)(C)C)C[C@@H]4C3)cc2N=C(N)C1 [TAZ-242] |
| 6.79 | – | CCCN(OCC)C(=O)C1=Cc2sc(CN3CCC(N)CC3)cc2N=C(N)C1 [TAZ-243] |
| 5.96 | – | CCCN(OCC)C(=O)C1=Cc2sc(CN3CC4(CCN4Cc4ccccc4)C3)cc2N=C(N)C1 [TAZ-246] |
| 6.38 | – | CCCN(OCC)C(=O)C1=Cc2sc(CN3C[C@H]4CNC[C@H]4C3)cc2N=C(N)C1 [TAZ-247] |
| 5.95 | – | CCCN(OCC)C(=O)C1=Cc2sc(CN3C[C@H]4CN(C(=O)OC(C)(C)C)C[C@@H]4C3)cc2N=C(N)C1 [TAZ-248] |
| 5.47 | – | CCCN(Cc1ncco1)C(=O)C1=Cc2sc(CC3CNC3)cc2N=C(N)C1 [TAZ-256] |

Further lines, the compound ahead of its results:

| Compound | pEC50 (human TLR8) | pEC50 (human TLR7) |
| --- | --- | --- |
| CCCN(CCC)C(=O)C1=Cc2sccc2N=C(N)C1 [TAZ-2, 5-amino-N,N-dipropyl-6H-thieno[3,2-b]azepine-7-carboxamide] | 5.62 | – |
| CCCN(CC#CCNC(=O)OC(C)(C)C)C(=O)C1=Cc2sc(Br)cc2N=C(N)C1 [TAZ-10, tert-butyl N-[4-[(5-amino-2-bromo-6H-thieno[3,2-b]azepine-7-carbonyl)-propyl-amino]but-2-ynyl]carbamate] | – | 5.11 |
| CCCN(CCC)C(=O)C1=Cc2sc(CCCCCN)cc2N=C(N)C1 [TAZ-14, 5-amino-2-(5-aminopentyl)-N,N-dipropyl-6H-thieno [3,2-b]azepine-7-carboxamide] | 5.31 | – |
| CCCN(CC#CCNC(=O)OC(C)(C)C)C(=O)C1=Cc2sccc2N=C(N)C1 [TAZ-16, tert-butyl N-[4-[(5-amino-6H-thieno[3,2-b]azepine-7-carbonyl)-propyl-amino]but-2-ynyl]carbamate] | 5.21 | – |
| CCCN(CC#CCN)C(=O)C1=Cc2sccc2N=C(N)C1 [TAZ-17, 5-amino-N-(4-aminobut-2-ynyl)-N-propyl-6H-thieno[3,2-b]azepine-7-carboxamide] | 5.39 | – |
| CCCN(Cc1ccc(CN)cc1)C(=O)C1=Cc2sccc2N=C(N)C1 [TAZ-30, 5-amino-N-(4-(aminomethyl)benzyl)-N-propyl-6H-thieno[3,2-b]azepine-7-carboxamide] | 6.19 | – |
| CCCN(Cc1ccc(CN2CCNCC2)cc1)C(=O)C1=Cc2sccc2N=C(N)C1 [TAZ-37] | – | < 5.05 |
| CCCN(Cc1ccc(CNC)cc1)C(=O)C1=Cc2sc(CCCCCN(C)C)cc2N=C(N)C1 [TAZ-65, 5-amino-2-[5-(dimethylamino)pentyl]-N-[[4-(methylaminomethyl)phenyl]methyl]-N-propyl-6H-thieno[3,2-b]azepine-7-carboxamide] | 6.51 | – |
| CCCN(C[C@H]1C[C@H](CN)C1)C(=O)C1=Cc2sccc2N=C(N)C1 [TAZ-69] | 5.37 | – |
| CCCN(CCC)C(=O)C1=Cc2sc(COCCCN)cc2N=C(N)C1 [TAZ-73] | – | < 5.05 |
| CCCN(CCC)C(=O)C1=Cc2sc(COCCN)cc2N=C(N)C1 [TAZ-81] | 5.10 | – |
| CCCN(CCC)C(=O)C1=Cc2sc(CNC(=O)CN)cc2N=C(N)C1 [TAZ-92] | 5.55 | – |
| CCCN(C[C@H]1CC[C@H](CN)CC1)C(=O)C1=Cc2sccc2N=C(N)C1 [TAZ-97] | < 5.05 | – |
| CCCN(C[C@H]1CC[C@H](CNC(=O)OC(C)(C)C)CC1)C(=O)C1=Cc2sccc2N=C(N)C1 [TAZ-98] | 6.20 | – |
| CCCN(C(=O)C1=Cc2sccc2N=C(N)C1)N(C)CC [TAZ-100] | < 5.05 | – |
| CCCN(OCc1ccc(OC)cc1)C(=O)C1=Cc2sccc2N=C(N)C1 [TAZ-101] | 6.69 | – |
| CN(C)Cc1ccc(CN(CCC(F)(F)F)C(=O)C2=Cc3sc(CCCCCNC(=O)OC(C)(C)C)cc3N=C(N)C2)cc1 [TAZ-116] | – | 5.79 |
